Laboratory results as given in US20060029967A1, “Assay for nitrous oxide neurologic syndrome” (priority 2002, published 2006).

Tests used:
[1] = molecular target: T1, methionine synthase (Homo sapiens, UniProt Q99707); conditions: recovery in cultured cells; de novo synthesis of the enzyme required to restore activity; cited from earlier work
[2] = system: methionine synthase; conditions: pigs exposed to nitrous oxide; cited from earlier work
[3] = molecular target: T1, methionine synthase; conditions: cited from earlier work
[4] = molecular target: methionine synthase (Mus musculus, UniProt A6H5Y3); conditions: mice exposed to nitrous oxide; cited from earlier work
Sequence of methionine synthase (Mus musculus, UniProt A6H5Y3) (A6H5Y3 whole entry): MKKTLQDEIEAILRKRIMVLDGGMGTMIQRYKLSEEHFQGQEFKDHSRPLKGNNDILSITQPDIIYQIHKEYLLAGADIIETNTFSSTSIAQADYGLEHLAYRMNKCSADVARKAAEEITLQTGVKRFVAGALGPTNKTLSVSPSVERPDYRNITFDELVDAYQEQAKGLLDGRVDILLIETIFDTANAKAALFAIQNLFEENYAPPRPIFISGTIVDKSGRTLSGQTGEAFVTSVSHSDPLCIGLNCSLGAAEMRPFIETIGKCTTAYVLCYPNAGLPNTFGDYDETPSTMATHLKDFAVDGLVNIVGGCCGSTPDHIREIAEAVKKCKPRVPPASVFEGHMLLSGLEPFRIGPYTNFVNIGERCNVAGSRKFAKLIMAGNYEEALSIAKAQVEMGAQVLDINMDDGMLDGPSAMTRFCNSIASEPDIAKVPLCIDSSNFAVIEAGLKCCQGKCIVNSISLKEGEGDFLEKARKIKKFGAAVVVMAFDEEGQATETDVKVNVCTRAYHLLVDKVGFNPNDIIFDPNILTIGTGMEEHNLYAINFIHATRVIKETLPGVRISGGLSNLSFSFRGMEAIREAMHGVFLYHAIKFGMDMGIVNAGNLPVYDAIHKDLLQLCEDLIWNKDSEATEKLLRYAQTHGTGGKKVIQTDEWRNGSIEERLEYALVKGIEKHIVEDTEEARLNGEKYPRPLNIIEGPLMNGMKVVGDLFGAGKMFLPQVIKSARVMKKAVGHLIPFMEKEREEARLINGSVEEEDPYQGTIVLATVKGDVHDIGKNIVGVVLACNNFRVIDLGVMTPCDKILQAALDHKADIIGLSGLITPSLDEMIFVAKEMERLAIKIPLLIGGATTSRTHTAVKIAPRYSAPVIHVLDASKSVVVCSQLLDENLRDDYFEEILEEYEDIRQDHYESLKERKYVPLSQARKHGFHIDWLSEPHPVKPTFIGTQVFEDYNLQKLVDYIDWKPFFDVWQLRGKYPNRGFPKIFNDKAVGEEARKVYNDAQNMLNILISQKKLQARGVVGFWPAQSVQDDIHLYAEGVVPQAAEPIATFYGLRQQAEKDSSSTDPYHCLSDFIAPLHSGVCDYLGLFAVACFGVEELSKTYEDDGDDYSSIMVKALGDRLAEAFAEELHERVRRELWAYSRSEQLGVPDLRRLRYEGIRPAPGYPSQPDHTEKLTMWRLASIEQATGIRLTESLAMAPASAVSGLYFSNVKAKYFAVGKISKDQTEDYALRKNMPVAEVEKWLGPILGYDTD

[5] = molecular target: methionine synthase (Rattus norvegicus, UniProt Q9Z2Q4); conditions: rats exposed to nitrous oxide; cited from earlier work
Sequence of methionine synthase (Rattus norvegicus, UniProt Q9Z2Q4) (Q9Z2Q4 whole entry): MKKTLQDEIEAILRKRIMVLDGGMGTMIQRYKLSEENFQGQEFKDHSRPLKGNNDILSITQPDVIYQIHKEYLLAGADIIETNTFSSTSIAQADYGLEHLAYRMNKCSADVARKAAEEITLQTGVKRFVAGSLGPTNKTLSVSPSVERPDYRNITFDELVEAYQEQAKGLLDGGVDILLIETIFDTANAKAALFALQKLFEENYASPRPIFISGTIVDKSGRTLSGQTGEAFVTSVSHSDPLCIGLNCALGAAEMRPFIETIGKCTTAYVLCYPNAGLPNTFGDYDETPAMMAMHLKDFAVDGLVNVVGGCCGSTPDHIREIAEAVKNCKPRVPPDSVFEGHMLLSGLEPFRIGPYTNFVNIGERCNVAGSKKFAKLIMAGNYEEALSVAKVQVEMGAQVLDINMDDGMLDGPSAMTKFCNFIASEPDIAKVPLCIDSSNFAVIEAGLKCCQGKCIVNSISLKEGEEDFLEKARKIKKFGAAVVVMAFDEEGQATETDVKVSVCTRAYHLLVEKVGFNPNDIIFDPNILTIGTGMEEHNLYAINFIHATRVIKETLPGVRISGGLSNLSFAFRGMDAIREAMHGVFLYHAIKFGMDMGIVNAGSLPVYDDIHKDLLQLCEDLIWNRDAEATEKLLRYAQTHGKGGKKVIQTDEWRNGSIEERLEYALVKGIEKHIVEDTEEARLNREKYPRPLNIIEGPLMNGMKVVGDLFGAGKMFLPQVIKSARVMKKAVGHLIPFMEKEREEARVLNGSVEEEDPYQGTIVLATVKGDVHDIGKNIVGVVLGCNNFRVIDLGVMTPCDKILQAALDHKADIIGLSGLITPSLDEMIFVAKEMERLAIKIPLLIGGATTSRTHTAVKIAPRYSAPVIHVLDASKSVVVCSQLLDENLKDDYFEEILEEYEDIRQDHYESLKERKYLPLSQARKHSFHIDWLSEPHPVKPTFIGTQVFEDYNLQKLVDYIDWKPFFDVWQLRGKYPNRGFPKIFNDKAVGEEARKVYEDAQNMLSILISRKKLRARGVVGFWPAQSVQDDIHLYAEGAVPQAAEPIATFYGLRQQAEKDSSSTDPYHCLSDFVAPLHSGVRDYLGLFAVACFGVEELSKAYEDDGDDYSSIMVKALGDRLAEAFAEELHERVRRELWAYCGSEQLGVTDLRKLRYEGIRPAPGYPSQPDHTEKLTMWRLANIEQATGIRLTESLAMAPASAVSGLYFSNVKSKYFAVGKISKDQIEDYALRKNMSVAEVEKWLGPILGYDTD

[6] = molecular target: T1, methionine synthase; assay: Case report: infant with MTHFR deficiency anesthetized with nitrous oxide; type: in vivo; set-up: from tissue; host or cells: patient in vivo; no tissue assayed for methionine synthase; conditions: infant with inherited MTHFR deficiency; two anesthetics with 60% nitrous oxide and 0.75% halothane (45 and 270 minutes)
Excerpt: A child discovered to have 5,10-methylenetetrahydrofolate reductase (MTHFR, […]) deficiency (OMIM #236250) died after two anesthetics using nitrous oxide (Beckman, D. R., et al., Birth Defects Orig. Artic. Ser. 23:47-64, 1987). MTHFR catalyzes the synthesis of 5-methyltetrahydrofolate. Sequence analysis of RNA transcripts and genomic DNA from the patient and family members, together with direct assays of fibroblast MTHFR activity, reveal that the enzyme deficiency was caused by a novel MTHFR mutation (1755→A) which changes conserved methionine 581 to an isoleucine, co-inherited with two common MTHFR polymorphisms (677C→T, 1298A→C) each associated with depressed enzyme function. (Frosst, P., et al., Nat. Genet. 10:111-3, 1995; van der Put, N. M., et al., Am. J. Hum. Genet. 62:1044-51, 1998).
The patient was normal […] when a mass was noted on the left lower extremity. Although not recognized prior to the patient's surgery, both the parent and uncle have serum total homocysteine levels >30.0 μM (normal 5.4-13.9 μM). On life-long, high dose vitamin B supplements, the proband's sibling has a homocysteine level of 4.3 μM. Neither the […] nor the sibling has received nitrous oxide. […]

T1 sequence (Q99707 whole entry): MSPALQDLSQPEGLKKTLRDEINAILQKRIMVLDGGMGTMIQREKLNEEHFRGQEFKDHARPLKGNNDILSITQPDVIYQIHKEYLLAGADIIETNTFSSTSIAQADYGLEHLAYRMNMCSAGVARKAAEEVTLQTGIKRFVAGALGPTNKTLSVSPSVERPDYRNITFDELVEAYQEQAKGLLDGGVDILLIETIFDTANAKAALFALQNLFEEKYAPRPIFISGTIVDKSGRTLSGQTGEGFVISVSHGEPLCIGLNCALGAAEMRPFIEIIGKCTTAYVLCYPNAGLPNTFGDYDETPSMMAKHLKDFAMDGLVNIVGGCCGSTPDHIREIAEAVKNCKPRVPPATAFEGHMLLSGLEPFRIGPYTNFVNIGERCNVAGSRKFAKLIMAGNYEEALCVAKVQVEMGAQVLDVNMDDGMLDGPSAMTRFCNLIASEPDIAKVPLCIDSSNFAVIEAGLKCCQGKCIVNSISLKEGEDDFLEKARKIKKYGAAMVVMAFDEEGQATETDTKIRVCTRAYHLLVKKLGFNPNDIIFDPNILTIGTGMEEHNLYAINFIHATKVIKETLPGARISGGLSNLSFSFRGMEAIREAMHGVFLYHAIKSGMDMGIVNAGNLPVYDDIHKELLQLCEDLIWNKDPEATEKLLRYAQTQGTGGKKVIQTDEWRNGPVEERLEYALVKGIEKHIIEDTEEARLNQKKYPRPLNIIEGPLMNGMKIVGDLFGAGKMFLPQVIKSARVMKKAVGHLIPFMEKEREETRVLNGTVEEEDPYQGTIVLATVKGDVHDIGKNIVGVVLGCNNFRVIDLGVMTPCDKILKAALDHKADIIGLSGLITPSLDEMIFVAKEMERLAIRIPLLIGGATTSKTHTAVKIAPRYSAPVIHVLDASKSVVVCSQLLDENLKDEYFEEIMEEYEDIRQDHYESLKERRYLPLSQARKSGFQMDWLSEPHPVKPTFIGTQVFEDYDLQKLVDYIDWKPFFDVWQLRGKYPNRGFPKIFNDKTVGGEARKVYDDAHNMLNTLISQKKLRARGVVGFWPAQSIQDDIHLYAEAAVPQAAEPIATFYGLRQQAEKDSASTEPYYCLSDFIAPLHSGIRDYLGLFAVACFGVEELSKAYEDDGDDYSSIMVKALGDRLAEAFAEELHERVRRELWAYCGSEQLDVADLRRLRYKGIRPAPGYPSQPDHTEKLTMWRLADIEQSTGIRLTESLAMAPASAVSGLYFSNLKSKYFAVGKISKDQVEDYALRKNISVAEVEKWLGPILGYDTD

## [N-]=[N+]=O [nitrous oxide]
[1]
  nature of nitrous oxide-mediated inhibition: irreversible
[2]
  delayed recovery of enzyme activity: ≥ 4 days
[3]; following greater than 200 minutes of nitrous oxide administration
  Residual methionine synthase activity: approaches zero
[3]; nitrous oxide administration
  mean half-time of inactivation of methionine synthase: 46 min
[4]
  delayed recovery of enzyme activity: ≥ 4 days
[5]
  delayed recovery of enzyme activity: ≥ 4 days
[6]
  clinical outcome after nitrous oxide anesthesia: caused the patient's death
